Activity calls are given as the source filed them. The calls are words filed in the database; no cut-off is given here.
Key:
[1] = Chemical stability in 0.1 M HCl at pH 1.2 assessed as half life measured up to 12 hrs by HPLC analysis; type: physicochemical
[2] = Chemical stability in phosphate buffer at pH 7.2 assessed as half life measured up to 12 hrs by HPLC analysis; type: physicochemical
[3] = Stability in simulated gastric fluid at pH 1.2 assessed as half life measured up to 12 hrs by HPLC analysis; type: ADME
[4] = Stability in simulated intestinal fluid at pH 6.8 assessed as half life measured up to 12 hrs by HPLC analysis; type: ADME
[5] = Metabolic stability in healthy C57BL/6 mouse jejunum assessed as half life measured up to 12 hrs by HPLC analysis; type: ADME, tissue-based
[6] = Metabolic stability in healthy C57BL/6 mouse colon assessed as half life measured up to 12 hrs by HPLC analysis; type: ADME, tissue-based
[7] = Metabolic stability in healthy C57BL/6 mouse colonic flora homogenate assessed as half life measured up to 12 hrs by HPLC analysis; type: ADME
[8] = Metabolic stability in healthy C57BL/6 mouse plasma assessed as half life measured up to 12 hrs by HPLC analysis; type: ADME, cell-free
[9] = Metabolic stability in DSS-induced C57BL/6 mouse jejunum assessed as half life measured up to 12 hrs by HPLC analysis; type: ADME, tissue-based
[10] = Metabolic stability in DSS-induced C57BL/6 mouse colon assessed as half life measured up to 12 hrs by HPLC analysis; type: ADME, tissue-based
[11] = Toxicity in healthy C57BL/6 mouse assessed as effect on colon length at 100 mg/kg, po administered for 10 days; type: organism-based; settings: in vivo, 240 h, time 10 day
[12] = target: T1, Solute carrier family 15 member 1 (Homo sapiens, UniProt P46059); assay: Substrate activity at PEPT1 in human Caco-2 cells assessed as inhibition of Gly-Sar substrate uptake by UPLC-MS/MS analysis; type: cell-based; settings: human, caco-2
T1 sequence (P46059 whole entry): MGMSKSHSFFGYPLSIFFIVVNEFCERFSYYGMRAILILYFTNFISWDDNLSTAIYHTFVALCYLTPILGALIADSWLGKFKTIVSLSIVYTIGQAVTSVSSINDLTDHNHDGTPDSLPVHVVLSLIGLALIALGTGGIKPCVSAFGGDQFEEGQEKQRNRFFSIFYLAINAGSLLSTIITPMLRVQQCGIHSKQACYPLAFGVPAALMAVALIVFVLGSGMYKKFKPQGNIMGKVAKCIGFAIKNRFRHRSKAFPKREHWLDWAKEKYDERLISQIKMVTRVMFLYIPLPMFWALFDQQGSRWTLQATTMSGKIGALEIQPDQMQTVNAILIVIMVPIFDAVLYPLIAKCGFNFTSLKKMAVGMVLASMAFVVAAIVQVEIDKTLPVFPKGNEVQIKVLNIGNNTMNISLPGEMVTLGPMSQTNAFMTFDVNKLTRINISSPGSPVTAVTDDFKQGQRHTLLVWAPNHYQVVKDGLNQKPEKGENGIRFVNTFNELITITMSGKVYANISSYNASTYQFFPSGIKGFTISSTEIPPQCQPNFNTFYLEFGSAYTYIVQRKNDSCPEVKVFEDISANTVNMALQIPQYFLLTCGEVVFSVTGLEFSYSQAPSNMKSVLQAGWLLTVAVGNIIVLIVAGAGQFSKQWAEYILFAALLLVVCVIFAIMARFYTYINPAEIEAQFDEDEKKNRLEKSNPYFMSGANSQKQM

[13] = AUC (0 to 6 hrs) in DSS-induced colitis C57BL/6 mouse model at 25 mg/kg, po measured up to 6 hrs by UPLC-MS/MS analysis; type: ADME, organism-based; design: route oral, dose 25 mg/kg, time <=6; settings: in vivo
[14] = Tmax in DSS-induced colitis C57BL/6 mouse model at 25 mg/kg, po measured up to 6 hrs by UPLC-MS/MS analysis; type: ADME, organism-based; settings: in vivo
[15] = AUC (0 to 6 hrs) in healthy C57BL/6 mouse at 25 mg/kg, po measured up to 6 hrs by UPLC-MS/MS analysis; type: ADME, organism-based; design: route oral, dose 25 mg/kg, time <=6; settings: in vivo
[16] = Tmax in healthy C57BL/6 mouse at 25 mg/kg, po measured up to 6 hrs by UPLC-MS/MS analysis; type: ADME, organism-based; settings: in vivo
Mus musculus [17] = assay: Anti-colitis activity against DSS-induced colitis in C57BL/6 mouse model assessed as fold decrease in disease activity index at 25 mg/kg, po administered via gavage twice daily for 10 days relative to control; type: functional; settings: time 10 day
Mus musculus [18] = assay: Anti-colitis activity against DSS-induced C57BL/6 mouse model of colitis assessed as fold change in disease activity index at 25 to 100 mg/kg, po administered via gavage twice a day for 10 days relative to SASP; type: functional; settings: dose 25-100 mg/kg; time 10 day
Mus musculus [19] = assay: Anti-colitis activity against DSS-induced colitis in C57BL/6 mouse model assessed as decrease in MPO level in colon at 25 mg/kg, po administered via gavage twice a day for 10 days; type: functional; design: scale not given: the % may be the effect or the level left; settings: time 10 day
Mus musculus [20] = assay: Anti-colitis activity against DSS-induced colitis in C57BL/6 mouse model assessed as decrease in MPO level in colon at 50 mg/kg, po administered via gavage twice a day for 10 days; type: functional; design: scale not given: the % may be the effect or the level left; settings: time 10 day
Mus musculus [21] = assay: Anti-colitis activity against DSS-induced C57BL/6 mouse model of colitis assessed as decrease in MPO level in colon at 100 mg/kg, po administered via gavage twice a day for 10 days; type: functional; design: scale not given: the % may be the effect or the level left; settings: time 10 day
Mus musculus [22] = assay: Antiinflammatory activity in DSS-induced C57BL/6 mouse model of colitis assessed as decrease in TNF-alpha level 25 to 100 mg/kg, po administered via gavage twice a day for 10 days; type: functional, organism-based; settings: dose 25-100 mg/kg, time 10.0 day
Mus musculus [23] = assay: Antiinflammatory activity in DSS-induced C57BL/6 mouse model of colitis assessed as decrease in IL-1beta level 25 to 100 mg/kg, po administered via gavage twice a day for 10 days; type: functional, organism-based; settings: dose 25-100 mg/kg, time 10.0 day
Mus musculus [24] = assay: Anti-colitis activity against DSS-induced C57BL/6 mouse model of colitis assessed as restoration of intestinal barrier function by measuring fold increase in FITC-dextran level in plasma at 25 mg/kg, po administered via gavage twice a day for 10 days followed by FITC-dextran addition and measured after 4 hrs; type: functional; settings: time 10 day
[25] = Toxicity in healthy C57BL/6 mouse assessed as histological changes in heart at 100 mg/kg, po administered for 10 days by H and E staining based assay; type: organism-based; settings: in vivo, 240 h, time 10 day
[26] = Toxicity in healthy C57BL/6 mouse assessed as histological changes in liver at 100 mg/kg, po administered for 10 days by H and E staining based assay; type: organism-based; settings: in vivo, 240 h, time 10 day
[27] = Toxicity in healthy C57BL/6 mouse assessed as histological changes in spleen at 100 mg/kg, po administered for 10 days by H and E staining based assay; type: organism-based; settings: in vivo, 240 h, time 10 day
[28] = Toxicity in healthy C57BL/6 mouse assessed as histological changes in lung at 100 mg/kg, po administered for 10 days by H and E staining based assay; type: organism-based; settings: in vivo, 240 h, time 10 day
[29] = Toxicity in healthy C57BL/6 mouse assessed as histological changes in kidney at 100 mg/kg, po administered for 10 days by H and E staining based assay; type: organism-based; settings: in vivo, 240 h, time 10 day

Which half-life [1] does the source give for `O=C(O)[C@@H](CO)NC(=O)[C@H]1C[C@@H](O)CN1` here?
Its half-life is over 12 h.

What about the half-life [2] of the same molecule?
Its half-life is over 12 h.

And the half-life [3]?
The half-life was over 12 h.

What about the half-life [4] of the same molecule?
Its half-life is over 12 h.

What about the half-life [5] of the same molecule?
Its half-life is over 12 h.

What about the half-life [6] of the same molecule?
The half-life was over 12 h.

And the half-life [7]?
Its half-life is over 12 h.

What about the half-life [8] of the same molecule?
Its half-life is over 12 h.

What about the half-life [9] of the same molecule?
The half-life was over 12 h.

What about the half-life [10] of the same molecule?
Its half-life is over 12 h.

What about the Activity [11] of the same molecule?
The Activity was “Non-Toxic”.

What about the “inhibition (INH)” value [12] of the same molecule?
Its value is “Not Active”.

And the AUC [13]?
The AUC was 54.65 microM/L.hr.

What about the Tmax [14] of the same molecule?
The Tmax was 4 h.

And the AUC [15]?
Its AUC is 16.61 microM/L.hr.

And the Tmax [16]?
Its Tmax is 4 h.

What about the “fold change (FC)” value (Mus musculus [17]) of the same molecule?
Its value is 1.5.

And the “fold change (FC)” value (Mus musculus [18])?
The value was 2.3.

And the Activity (Mus musculus [19])?
The Activity was 72.8%.

And the Activity (Mus musculus [20])?
The Activity was 47.5%.

And the Activity (Mus musculus [21])?
Its Activity is 59.7%.

And the Activity (Mus musculus [22])?
Its Activity is “Active”.

What about the Activity (Mus musculus [23]) of the same molecule?
The Activity was “Active”.

And the “fold change (FC)” value (Mus musculus [24])?
Its value is 10.7.

What about the Activity [25] of the same molecule?
Its Activity is “Non-Toxic”.

And the Activity [26]?
The Activity was “Non-Toxic”.

What about the Activity [27] of the same molecule?
Its Activity is “Non-Toxic”.

What about the Activity [28] of the same molecule?
The Activity was “Non-Toxic”.

What about the Activity [29] of the same molecule?
The Activity was “Non-Toxic”.
